Laboratory results from patent US7291451B2, “Modulation of pericyte proliferation” (XOMA Technology Ltd., priority 2000, dated 2007).
“Also recorded” adds a separate entry of the source.

Assays:
[1] = tested on: bovine retinal pericytes (BRPC); test: Cell growth assay (DNA content, cell number) in bovine retinal pericytes; assay type: cell-based; conditions: for stimulation of proliferation: 5, 10 or 15% FBS
Procedure: A cell growth assay was performed as follows: Cells were plated onto 12-well culture plates and incubated overnight. The cells were treated with vehicle, vascular endothelial growth factor (VEGF, R & D Systems, Minneapolis, Minn.) at 25 ng/ml, serum, compounds, or combinations thereof. The medium is changed during the incubation period, with fresh medium and fresh test compound added every 2 days. After incubation for indicated time period at 37° C., the cells were lysed in 0.1% SDS and DNA content was measured by means of Hoechst-33258 dye and a fluorometer (model TKO-100, Hoefer Scientific Instruments, San Francisco, Calif.). It has been shown that total cellular DNA content measured in this manner correlates closely with actual cell number as determined by hemocytometer counting of trypsinized cells.
Determinations were performed in triplicate and all experiments were repeated at least three times. Results are expressed as the mean ±standard deviation, unless otherwise indicated. Statistical analysis employed Student's t-test or analysis of variance to compare quantitative data populations with normal distributions and equal variance. Data were analyzed using the Mann-Whitney rank sum test or the Kruskal-Wallis test for populations with non-normal distributions or unequal variance. A P-value of <0.05 was considered statistically significant.
Primary cultures of bovine retinal pericytes (BRPC) were isolated by homogenization and a series of filtration steps as described in King et al., J. Clin. Invest., 1985, 75:1028-36. BRPC were cultured in Dulbecco's modified Eagle's medium (DMEM, Gibco BRL, Grand Island, N.Y.) with 5.5 mM glucose and 20% fetal bovine serum (FBS, Gibco BRL, Grand Island, N.Y.). Cells were characterized for homogeneity by their immunoreactivity with monoclonal antibody 3G5 [Nayak et al., J. Exp. Med. 1988, 167:1003-15]. Cells remained morphologically unchanged under these conditions, as confirmed by light microscopy. Only cells from passages 2 through 7 were used for the experiments.
A cell growth assay was performed as described above in Example 1 and the medium was changed, with fresh medium and fresh test compound added every 2 or 3 days, preferably every 2 days. […] At 20% FBS a six to seven fold increase of total DNA was detected.

[2] = tested on: human retinal pericytes (HRPC); test: Human retinal pericyte proliferation assay (Methylene blue, OD650); assay type: cell-based; conditions: 5% FBS
Procedure: In addition to studies with primary cell cultures of bovine retinal pericytes described above, experiments were performed with a human cell line obtained from Clonetics (San Diego, Calif.) of retinal pericytes (catalog no. CC-2542 PyCRt). These human retinal pericytes (HRPC) were cultured in Dulbecco's modified Eagle's medium (DMEM, Gibco BRL, Grand Island, N.Y.) with 5.6 mM glucose and 20% fetal bovine serum (FBS, Gibco BRL, Grand Island, N.Y.).
Proliferation assays were performed as follows: HRPC were plated onto 24-well culture plates (3000 cells/well) in 5 or 10% FBS-DMEM with 5.6 mM glucose and incubated overnight. The cells were treated once with vehicle alone or with vehicle and several concentrations of XMP.627 ([SEQ ID NO: 4]), XMP.664 ([SEQ ID NO: 5]), XMP.679 ([SEQ ID NO: 3]), or XMP.728 ([SEQ ID NO: 6]) for 5 or 6 days. The medium was not changed, nor were additional amounts of test compounds added as described in the experiments of part A above. The cells were fixed and stained with Methylene blue and proliferation assayed by observation at OD650.

[3] = tested on: ischemia-induced retinal neovascularization; test: Ischemia-induced retinal neovascularization in neonatal mice; assay type: in vivo
Excerpt: To produce ischemia-induced retinal neovascularization, litters of 7-day-old (postnatal day 7, P7) C57BL/6J mice and their nursing mothers were exposed to 75±2% oxygen for 5 days and then returned to ambient air at age P12 as described in Smith et al., Invest. Ophthalmol. Vis. Sci., 1994, 35:101-111. […] Control animals received saline. After sacrifice and enucleation, flat-mounted, fluorescein-conjugated dextran-perfused retinas were examined to assess the retinal vasculature. This mouse model reflects the effects of hypoxia on inducing angiogenesis in the retina. After birth, the mice are exposed to a high level oxygen for 4-5 days. The effect of high levels of oxygen will decrease or prevent the growth of blood vessels in the retina. Once the mice have been removed from the hyperoxic condition to normal oxygen levels, the retina will develop hypoxia due to the lack of blood vessels. The hypoxia in the retina will induce many growth factors (including VEGF) which leads to a angiogenic response that can be quantitated by measuring the number of nuclei in the blood vessels above the internal limiting membrane. This mouse model of angiogenesis is thought to be a good animal reflection of retinopathy of prematurity. The main growth factor responsible for retinal angiogenesis in this mouse model is thought to be due to the expression of VEGF. […] These neovascular rufts were most prominent on P17-19, but after P23 the neovascularization regressed, and the vascular pattern normalized by P26. As described in Aiello et al., Proc. Nat'l Acad. Sci. USA, 1995, 92:10457-61, mice at P17 (n=5) were deeply anesthetized with pentobarbitol sodium (100 mg/kg) and sacrificed by cardiac perfusion with 4% paraformaldehyde in phosphate-buffered saline. Eyes were enucleated and fixed in 4% paraformaldehyde at 4° C. overnight, and enbedded in paraffin. Over 50 serial sections (6 μm) including optic nerve head were placed on microscope slides. After staining with periodic acid/Schiff reagent and hematoxylin, 10 intact sections of equal length, each 30 μm apart, were evaluated for a span of 300 μm. All retinal vascular cell nuclei anterior to the internal limiting membrane were counted in each section by a fully masked protocol. The mean of all 10 counted sections yielded average neovascular cell nuclei per 6 μm section per eye. No vascular cell nuclei anterior to the internal limiting membrane are observed in normal unmanipulated animals.

## XMP.679: BPI-derived peptide derived from BPI domain II, SEQ ID NO: 3 (KLFKAQAKAKG; XMP.679; listed as Homo sapiens)
[1]; 5 μg/mL
  stimulation of proliferation: ~2 fold
[1]; 5 μg/ml, 5% FBS
  growth increase as potency of 20% FBS: 30 to 40%
[1]; 5 μg/ml, 10% FBS
  growth compared with 20% FBS: equaled the effect of 20% FBS
  retinal pericyte proliferation: greatest increase
[1]; 5 μg/ml, 15% FBS
  growth compared with 15 or 20% FBS (trend): may have more growth effect than either 15 or 20% FBS
[1]; 15 μg/mL
  stimulation of proliferation: no enhancement
[1]; 15 μg/ml (higher concentration), 5% FBS, 3 or 6 days
  effect on growth: did not increase growth; also recorded: did not show-a growth stimulating effect
[1]; 15 μg/ml, 10% FBS
  effect on growth: did not have much growth effect
[1]; 20 μg/ml, 10% FBS
  retinal pericyte proliferation: did not
[1]; 1, 5, 10, and 15 μg/ml, 10% FBS
  pericyte DNA content: Statistically significant increases
[1]; 1 or 5 μg/ml, 5% FBS, 6 days
  effect on growth: increased growth
[1]; 15% FBS, concentration not given
  effect on growth: did not increase the growth of pericyte in 15% FBS to any significant amount
[2]; 10 μg/ml and higher
  effect on HRPC growth: slight growth inhibitory effect
[2]
  concentration of maximum HRPC proliferation: approximately 5 μg/ml
[2]; approximately 0.5, 1, 5, 8 μg/ml
  effect on HRPC proliferation: increased HRPC proliferation in a dose responsive manner
[3]; 10 mg/kg daily intraperitoneal, p<0.001
  decrease of number of nuclei anterior to the internal limiting membrane: 30 to 40%
[3]; 10 mg/kg intraperitoneal every 24 hrs P12 to P17
  retinal vasculature compared with control mice: fewer blood vessels with much less density and tortuosity
[3]; 20 mg/kg daily intraperitoneal, p<0.01
  decrease of number of nuclei anterior to the internal limiting membrane: approximately 71%
[3]; range of 10-20 mg/kg
  inhibition of retinal neovascularization (dose response): inhibits retinal neovascularization in a dose responsive manner
